From ChEMBL document CHEMBL2321680, “High-Throughput Selectivity Assays for Small-Molecule Inhibitors of β-Catenin/T-Cell Factor Protein-Protein Interactions” (ACS Med Chem Lett, 2013)

Assays:
TCF4/beta-catenin [1] = target: T1, TCF4/beta-catenin (Homo sapiens, UniProt P35222+Q9NQB0); experiment: Inhibition of human […]/Tcf4 interaction after 1 hr by fluorescence polarization assay; format: protein-complex assay
Homo sapiens [2] = species on record: Homo sapiens; experiment: Selectivity ratio of Ki for human […]/APC-R3 interaction to Ki for human […]/Tcf4 interaction by alphascreen assay
Homo sapiens [3] = species on record: Homo sapiens; experiment: Selectivity ratio of Ki for human […]/E-cadherin interaction to Ki for human […]/Tcf4 interaction by alphascreen assay
TCF4/beta-catenin [4] = target: T1, TCF4/beta-catenin; experiment: Inhibition of human beta-catenin/Tcf4 interaction after 1 hr by alphascreen assay
[5] = target: Catenin beta-1/Adenomatous polyposis coli protein (Homo sapiens); experiment: Inhibition of human beta-catenin/APC-R3 interaction after 1 hr by alphascreen assay
[6] = target: Catenin beta-1/Cadherin-1 (Homo sapiens); experiment: Inhibition of human beta-catenin/E-cadherin interaction after 1 hr by alphascreen assay
Homo sapiens [7] = species on record: Homo sapiens; experiment: Selectivity ratio of Ki for human […]/APC-R3 interaction to Ki for human […]/Tcf4 interaction by fluorescence polarization assay
Homo sapiens [8] = species on record: Homo sapiens; experiment: Selectivity ratio of Ki for human […]/E-cadherin interaction to Ki for human […]/Tcf4 interaction by fluorescence polarization assay
[9] = target: Catenin beta-1/Adenomatous polyposis coli protein (Homo sapiens); experiment: Inhibition of human beta-catenin/APC-R3 interaction after 1 hr by fluorescence polarization assay
[10] = target: Catenin beta-1/Cadherin-1 (Homo sapiens); experiment: Inhibition of human beta-catenin/E-cadherin interaction after 1 hr by fluorescence polarization assay

T1 sequence (P35222 whole entry): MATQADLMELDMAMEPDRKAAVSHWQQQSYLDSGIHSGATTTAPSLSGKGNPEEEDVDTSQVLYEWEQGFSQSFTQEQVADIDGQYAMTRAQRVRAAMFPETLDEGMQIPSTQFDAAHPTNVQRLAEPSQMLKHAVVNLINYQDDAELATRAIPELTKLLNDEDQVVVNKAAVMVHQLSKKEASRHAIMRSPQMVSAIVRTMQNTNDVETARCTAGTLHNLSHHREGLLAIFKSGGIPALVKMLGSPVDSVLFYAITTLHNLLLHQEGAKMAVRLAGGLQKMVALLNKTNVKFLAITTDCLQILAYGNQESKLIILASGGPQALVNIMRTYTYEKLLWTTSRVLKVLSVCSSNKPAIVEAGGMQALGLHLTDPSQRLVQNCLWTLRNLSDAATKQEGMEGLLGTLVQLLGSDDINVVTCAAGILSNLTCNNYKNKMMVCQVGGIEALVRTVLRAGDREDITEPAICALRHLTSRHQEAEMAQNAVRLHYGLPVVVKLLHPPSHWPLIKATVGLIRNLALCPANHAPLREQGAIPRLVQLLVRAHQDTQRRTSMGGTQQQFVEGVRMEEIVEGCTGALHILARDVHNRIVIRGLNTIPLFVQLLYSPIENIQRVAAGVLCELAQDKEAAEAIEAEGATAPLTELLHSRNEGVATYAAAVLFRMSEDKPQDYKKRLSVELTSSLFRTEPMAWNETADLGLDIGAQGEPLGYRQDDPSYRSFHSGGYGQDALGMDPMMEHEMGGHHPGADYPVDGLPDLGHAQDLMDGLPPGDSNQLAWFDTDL
T1 sequence (Q9NQB0 whole entry): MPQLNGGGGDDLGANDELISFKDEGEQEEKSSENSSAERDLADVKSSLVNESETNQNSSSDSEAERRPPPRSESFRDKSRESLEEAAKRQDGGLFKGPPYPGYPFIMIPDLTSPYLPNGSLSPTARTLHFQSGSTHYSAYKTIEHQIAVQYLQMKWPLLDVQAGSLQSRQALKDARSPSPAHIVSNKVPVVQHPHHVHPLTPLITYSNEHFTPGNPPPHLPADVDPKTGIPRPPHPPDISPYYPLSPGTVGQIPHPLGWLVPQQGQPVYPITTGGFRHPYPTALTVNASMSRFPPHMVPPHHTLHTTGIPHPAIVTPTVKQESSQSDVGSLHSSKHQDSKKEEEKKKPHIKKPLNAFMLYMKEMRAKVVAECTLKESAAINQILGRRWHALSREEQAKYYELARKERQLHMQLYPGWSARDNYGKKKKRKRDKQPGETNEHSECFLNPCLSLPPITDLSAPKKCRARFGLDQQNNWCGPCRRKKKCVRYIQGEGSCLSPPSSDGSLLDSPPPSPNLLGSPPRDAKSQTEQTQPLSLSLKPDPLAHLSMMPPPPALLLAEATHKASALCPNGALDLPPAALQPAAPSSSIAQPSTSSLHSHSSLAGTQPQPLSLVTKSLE

| Ratio Ki (Homo sapiens [2]) | Ratio Ki (Homo sapiens [3]) | Ki (TCF4/beta-catenin [4]) [µM] | Ki [5] [µM] | Ki [6] [µM] | Ratio Ki (Homo sapiens [7]) | Ratio Ki (Homo sapiens [8]) | Ki [9] [µM] | Ki [10] [µM] | SMILES | Ki (TCF4/beta-catenin [1]) [µM] |
| --- | --- | --- | --- | --- | --- | --- | --- | --- | --- | --- |
|  |  |  |  |  |  |  |  |  | COc1c(C[C@@H](C)OC(=O)Oc2ccc(O)cc2)c2c3c(C[C@@H](C)OC(=O)c4ccccc4)c(OC)c(=O)c4c(O)cc(OC)c(c5c(OC)cc(O)c(c1=O)c52)c43 [CALPHOSTIN C] | 18 |
| 3.8 | 4.8 | 29 | 110 | 140 |  |  |  |  | COc1cccc(/C=C2/SC(=S)N(CCC(=O)O)C2=O)c1OC |  |
| 10.5 | 3.3 | 21 | 220 | 68 | 25 | 16.3 | 400 | 260 | C=CCN1C(=O)/C(=N\NC(=O)C(=O)Nc2cccc(C(=O)O)c2)c2ccccc21 | 16 |
